# In patent EP4722207A1, “OXOISOINDOLINYL-SUBSTITUTED TETRAHYDROPYRIMIDINEDIONE DERIVATIVE AND USE THEREOF” (Gluetacs Therapeutics (Shanghai) Co., Ltd., priority 2023, dated 2024):
# Experiments:
# GSPT1 = biological target: T1, GSPT1 (Homo sapiens, UniProt P15170+Q96SW2); experiment: Western-blot assay, substrate protein degradation in hPBMCs: GSPT1; type: cell-based; conditions: for substrate protein remaining % GSPT1: 24 hours of compound treatment, 50 nM and 500 nM; for GSPT1 substrate protein remaining %: compounds at 50 nM and 500 nM, 24 hours
# T1 construct: effects of the compounds of the present disclosure on the expression of target proteins in cells; endogenous in cells; host or cells: human PBMCs (hPBMCs)
# T1 sequence (P15170 whole entry): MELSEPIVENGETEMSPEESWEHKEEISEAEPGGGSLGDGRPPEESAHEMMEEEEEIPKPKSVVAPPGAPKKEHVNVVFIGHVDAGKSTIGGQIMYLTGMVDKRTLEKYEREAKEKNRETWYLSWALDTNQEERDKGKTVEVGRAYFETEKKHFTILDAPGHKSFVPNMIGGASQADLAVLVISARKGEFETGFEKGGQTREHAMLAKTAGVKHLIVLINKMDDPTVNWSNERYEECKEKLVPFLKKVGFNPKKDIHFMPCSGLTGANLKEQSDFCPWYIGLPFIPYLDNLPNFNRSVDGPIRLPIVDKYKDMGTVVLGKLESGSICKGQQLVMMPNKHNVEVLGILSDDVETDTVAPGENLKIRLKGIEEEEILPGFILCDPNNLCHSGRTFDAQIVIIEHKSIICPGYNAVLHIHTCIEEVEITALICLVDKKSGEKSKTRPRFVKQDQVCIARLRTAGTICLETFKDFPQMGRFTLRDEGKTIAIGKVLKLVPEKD
# T1 sequence (Q96SW2 whole entry): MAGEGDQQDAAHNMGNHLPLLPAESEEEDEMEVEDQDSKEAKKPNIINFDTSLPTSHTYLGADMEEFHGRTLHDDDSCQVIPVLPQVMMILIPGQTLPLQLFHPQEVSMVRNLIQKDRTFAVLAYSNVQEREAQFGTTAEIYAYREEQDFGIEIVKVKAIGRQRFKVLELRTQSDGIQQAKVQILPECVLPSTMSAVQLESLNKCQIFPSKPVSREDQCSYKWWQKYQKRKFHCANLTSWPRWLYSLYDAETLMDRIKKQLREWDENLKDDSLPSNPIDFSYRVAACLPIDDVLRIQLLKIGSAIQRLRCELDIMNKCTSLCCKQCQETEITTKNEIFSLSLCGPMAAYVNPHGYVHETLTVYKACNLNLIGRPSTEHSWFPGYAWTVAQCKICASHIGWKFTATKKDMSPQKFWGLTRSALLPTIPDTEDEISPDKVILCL
# T1 sequence (Q16531 whole entry partner): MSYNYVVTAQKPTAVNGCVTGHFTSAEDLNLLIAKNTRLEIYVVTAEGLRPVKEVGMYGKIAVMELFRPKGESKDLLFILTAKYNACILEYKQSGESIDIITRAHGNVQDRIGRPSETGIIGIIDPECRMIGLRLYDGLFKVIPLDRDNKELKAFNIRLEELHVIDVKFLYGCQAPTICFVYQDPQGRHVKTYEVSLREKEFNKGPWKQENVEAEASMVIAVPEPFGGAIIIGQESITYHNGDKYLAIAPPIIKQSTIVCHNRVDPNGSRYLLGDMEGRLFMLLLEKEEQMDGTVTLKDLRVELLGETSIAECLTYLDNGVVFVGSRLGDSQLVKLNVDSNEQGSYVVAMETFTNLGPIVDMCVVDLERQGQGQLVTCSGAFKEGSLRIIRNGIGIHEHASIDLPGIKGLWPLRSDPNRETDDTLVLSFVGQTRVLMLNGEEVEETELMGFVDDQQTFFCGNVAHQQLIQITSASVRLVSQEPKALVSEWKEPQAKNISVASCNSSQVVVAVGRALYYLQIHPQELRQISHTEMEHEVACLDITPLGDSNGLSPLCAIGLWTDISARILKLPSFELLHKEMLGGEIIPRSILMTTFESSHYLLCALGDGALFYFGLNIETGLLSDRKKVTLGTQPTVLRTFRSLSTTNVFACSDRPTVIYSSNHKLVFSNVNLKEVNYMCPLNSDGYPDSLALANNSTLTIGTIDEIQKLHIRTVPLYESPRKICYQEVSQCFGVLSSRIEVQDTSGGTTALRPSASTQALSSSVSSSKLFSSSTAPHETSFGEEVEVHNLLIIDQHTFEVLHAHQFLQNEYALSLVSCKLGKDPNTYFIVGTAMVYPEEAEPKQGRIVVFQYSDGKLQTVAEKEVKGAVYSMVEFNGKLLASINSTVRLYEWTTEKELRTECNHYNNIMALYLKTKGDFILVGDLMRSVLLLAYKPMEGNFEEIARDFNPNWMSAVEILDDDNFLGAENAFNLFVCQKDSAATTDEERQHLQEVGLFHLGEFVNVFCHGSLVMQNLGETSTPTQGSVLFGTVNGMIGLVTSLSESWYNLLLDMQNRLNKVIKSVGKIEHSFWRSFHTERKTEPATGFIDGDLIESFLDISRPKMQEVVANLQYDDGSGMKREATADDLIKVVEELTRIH
# IKZF1 = biological target: T2, IKZF1 (Homo sapiens, UniProt Q13422+Q96SW2); experiment: Western-blot assay, substrate protein degradation in hPBMCs: IKZF1; type: cell-based; conditions: for substrate protein remaining % IKZF1: 24 hours of compound treatment, 50 nM and 500 nM; for IKZF1 substrate protein remaining %: compounds at 50 nM and 500 nM, 24 hours
# T2 construct: effects of the compounds of the present disclosure on the expression of target proteins in cells; endogenous in cells; host or cells: human PBMCs (hPBMCs)
# T2 sequence (Q13422 whole entry): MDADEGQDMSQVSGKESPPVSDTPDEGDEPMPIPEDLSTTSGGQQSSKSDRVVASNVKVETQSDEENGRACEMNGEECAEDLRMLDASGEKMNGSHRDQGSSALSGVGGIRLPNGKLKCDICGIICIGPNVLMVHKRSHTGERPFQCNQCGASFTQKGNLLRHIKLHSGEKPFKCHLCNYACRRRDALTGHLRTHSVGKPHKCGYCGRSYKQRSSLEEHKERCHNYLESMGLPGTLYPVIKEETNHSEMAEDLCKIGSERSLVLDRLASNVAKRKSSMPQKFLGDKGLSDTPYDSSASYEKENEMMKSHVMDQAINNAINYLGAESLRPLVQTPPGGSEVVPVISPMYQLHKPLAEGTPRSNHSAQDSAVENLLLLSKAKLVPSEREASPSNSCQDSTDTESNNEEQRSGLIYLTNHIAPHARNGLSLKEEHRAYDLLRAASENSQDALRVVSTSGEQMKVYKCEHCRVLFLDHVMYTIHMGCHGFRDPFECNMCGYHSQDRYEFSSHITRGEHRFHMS
# T2 sequence (Q96SW2 whole entry): as the sequence (Q96SW2 whole entry) above
# T2 sequence (Q16531 whole entry partner): as the sequence (Q16531 whole entry partner) above
# CK1α = biological target: T3, CK1α (Homo sapiens, UniProt P48729+Q96SW2); experiment: Western-blot assay, substrate protein degradation in hPBMCs: CK1α; type: cell-based; conditions: for substrate protein remaining % CK1α: 24 hours of compound treatment, 50 nM and 500 nM; for CK1α substrate protein remaining %: compounds at 50 nM and 500 nM, 24 hours
# T3 construct: effects of the compounds of the present disclosure on the expression of target proteins in cells; endogenous in cells; host or cells: human PBMCs (hPBMCs)
# T3 sequence (P48729 whole entry): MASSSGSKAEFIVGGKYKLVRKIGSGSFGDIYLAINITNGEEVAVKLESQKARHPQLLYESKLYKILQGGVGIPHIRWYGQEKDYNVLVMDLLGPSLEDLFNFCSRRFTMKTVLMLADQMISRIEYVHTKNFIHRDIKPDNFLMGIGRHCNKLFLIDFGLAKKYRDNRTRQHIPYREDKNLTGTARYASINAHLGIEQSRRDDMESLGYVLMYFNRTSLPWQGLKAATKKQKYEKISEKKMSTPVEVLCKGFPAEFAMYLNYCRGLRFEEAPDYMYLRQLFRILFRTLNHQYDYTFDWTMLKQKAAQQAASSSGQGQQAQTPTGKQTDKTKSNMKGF
# T3 sequence (Q96SW2 whole entry): as the sequence (Q96SW2 whole entry) above
# T3 sequence (Q16531 whole entry partner): as the sequence (Q16531 whole entry partner) above
# IKZF3 = biological target: T4, IKZF3 (Homo sapiens, UniProt Q96SW2+Q9UKT9); experiment: Western-blot assay, substrate protein degradation in hPBMCs: IKZF3; type: cell-based; conditions: for substrate protein remaining % IKZF3: 24 hours of compound treatment, 50 nM and 500 nM; for IKZF3 substrate protein remaining %: compounds at 50 nM and 500 nM, 24 hours
# T4 construct: effects of the compounds of the present disclosure on the expression of target proteins in cells; endogenous in cells; host or cells: human PBMCs (hPBMCs)
# T4 sequence (Q9UKT9 whole entry): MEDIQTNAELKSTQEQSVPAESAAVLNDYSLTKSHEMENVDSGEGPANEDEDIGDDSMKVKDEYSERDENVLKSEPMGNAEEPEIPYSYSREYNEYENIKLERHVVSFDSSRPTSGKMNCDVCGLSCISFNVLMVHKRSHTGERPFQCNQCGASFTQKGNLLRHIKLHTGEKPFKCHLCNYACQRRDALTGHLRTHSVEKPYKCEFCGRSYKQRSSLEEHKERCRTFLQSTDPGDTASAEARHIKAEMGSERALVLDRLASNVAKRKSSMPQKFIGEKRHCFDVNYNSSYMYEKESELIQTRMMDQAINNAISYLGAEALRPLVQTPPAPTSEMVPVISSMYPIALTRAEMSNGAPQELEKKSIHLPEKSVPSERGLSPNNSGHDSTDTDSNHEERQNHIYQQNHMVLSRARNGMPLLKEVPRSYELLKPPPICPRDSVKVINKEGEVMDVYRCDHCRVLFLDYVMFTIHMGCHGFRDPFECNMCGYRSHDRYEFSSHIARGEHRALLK
# T4 sequence (Q96SW2 whole entry): as the sequence (Q96SW2 whole entry) above
# T4 sequence (Q16531 whole entry partner): as the sequence (Q16531 whole entry partner) above
# MM.1S = experiment: Cell viability assay (CellTiter-Meiluncell Luminescent), tumor cell proliferation, MM.1S; conditions: Homo sapiens, MM1.S, 96 h, read-out: inhibitory activity (IC50, nM) against tumor cells proliferation, MM.1S
# Protocol: (§1) The tumor cells used herein were cultured in a cell culture medium listed in table 2 at 37°C in an incubator with 5% CO2. Prior to experimentation, all cell lines used were correctly identified by STR profiling, and tested negative for mycoplasma contamination using a mycoplasma detection kit through routine screenings.
# (§2) On the following day, the test compounds of the present disclosure were subjected to serial dilution. […] Subsequently, 0.5 µL of the test compound dilution was transferred into the 96-well plate containing the cells, with each well containing 100 µL of cell culture medium. […] Into the 96-well plate, the diluted test compounds and corresponding detection reagents were added, resulting in final test compound concentrations of 500 nM and 10 nM, respectively. The experimental procedure is described below using the diluted 2 µM test compound as an example.
# (§3) After the cells were treated with the compounds of the present disclosure for a specified period, the cell viability assay reagent was added to the culture medium according to the kit's instructions to determine cell viability. […] All controls were treated using the same procedure as the compounds of the present disclosure. The growth inhibition curves for the compounds of the present disclosure were plotted using Prism GraphPad software, and the IC50 values were calculated therefrom.
# IKZF2 = biological target: T5, IKZF2 (Homo sapiens, UniProt Q96SW2+Q9UKS7); experiment: Western-blot assay, substrate protein degradation in hPBMCs: IKZF2; type: cell-based; conditions: for substrate protein remaining % IKZF2: 24 hours of compound treatment, 50 nM and 500 nM; for IKZF2 substrate protein remaining %: compounds at 50 nM and 500 nM, 24 hours
# T5 construct: effects of the compounds of the present disclosure on the expression of target proteins in cells; endogenous in cells; host or cells: human PBMCs (hPBMCs)
# WEE1 = biological target: T6, WEE1 (Homo sapiens, UniProt P30291+Q96SW2); experiment: Western-blot assay, substrate protein degradation in hPBMCs: WEE1; type: cell-based; conditions: for substrate protein remaining % WEE1: 24 hours of compound treatment, 50 nM and 500 nM; for WEE1 substrate protein remaining %: compounds at 50 nM and 500 nM, 24 hours
# T6 construct: effects of the compounds of the present disclosure on the expression of target proteins in cells; endogenous in cells; host or cells: human PBMCs (hPBMCs)
# T6 sequence (P30291 whole entry): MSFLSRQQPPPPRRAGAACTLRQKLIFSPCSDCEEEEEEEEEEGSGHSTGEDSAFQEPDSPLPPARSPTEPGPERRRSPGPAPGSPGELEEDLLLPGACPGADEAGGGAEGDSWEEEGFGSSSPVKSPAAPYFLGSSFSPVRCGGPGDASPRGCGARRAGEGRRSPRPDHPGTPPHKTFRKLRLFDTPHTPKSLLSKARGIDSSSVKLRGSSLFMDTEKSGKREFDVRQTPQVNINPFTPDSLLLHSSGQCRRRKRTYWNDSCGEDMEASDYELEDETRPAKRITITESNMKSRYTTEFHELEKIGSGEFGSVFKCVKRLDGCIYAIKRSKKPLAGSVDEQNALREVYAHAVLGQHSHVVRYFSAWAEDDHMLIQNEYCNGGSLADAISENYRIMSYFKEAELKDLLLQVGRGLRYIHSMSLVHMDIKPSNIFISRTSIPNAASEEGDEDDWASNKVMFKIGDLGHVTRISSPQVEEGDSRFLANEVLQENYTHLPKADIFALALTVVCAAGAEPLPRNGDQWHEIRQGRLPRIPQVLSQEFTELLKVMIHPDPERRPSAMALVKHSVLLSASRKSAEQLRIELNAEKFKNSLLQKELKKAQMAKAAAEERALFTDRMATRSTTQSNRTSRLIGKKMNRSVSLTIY
# T6 sequence (Q96SW2 whole entry): as the sequence (Q96SW2 whole entry) above
# T6 sequence (Q16531 whole entry partner): as the sequence (Q16531 whole entry partner) above
# MV-4-11 = experiment: Cell viability assay (CellTiter-Meiluncell Luminescent), tumor cell proliferation, MV-4-11; conditions: Homo sapiens, MV4-11, 96 h; for inhibition at 0.01 µM: read-out: Inhibition Rate at 10 nM (%); for inhibition at 0.5 µM: read-out: Inhibition Rate at 500 nM (%)
# Protocol: as §1, §2, §3
# H292 = experiment: Cell viability assay (CellTiter-Meiluncell Luminescent), tumor cell proliferation, H292; conditions: Homo sapiens, NCI-H292, 96 h; for inhibition at 0.01 µM: read-out: Inhibition Rate at 10 nM (%); for inhibition at 0.5 µM: read-out: Inhibition Rate at 500 nM (%)
# MDA-MB-231 = experiment: Cell viability assay (CellTiter-Meiluncell Luminescent), tumor cell proliferation, MDA-MB-231; conditions: Homo sapiens, MDA-MB-231, 96 h; for inhibition at 0.01 µM: read-out: Inhibition Rate at 10 nM (%); for inhibition at 0.5 µM: read-out: Inhibition Rate at 500 nM (%)
IC50 (MM.1S),Structure (SMILES),substrate protein remaining % GSPT1 (GSPT1),substrate protein remaining % IKZF1 (IKZF1),substrate protein remaining % CK1α (CK1α),substrate protein remaining % IKZF3 (IKZF3),substrate protein remaining % IKZF2 (IKZF2),substrate protein remaining % WEE1 (WEE1),GSPT1 substrate protein remaining % (GSPT1),IKZF1 substrate protein remaining % (IKZF1),CK1α substrate protein remaining % (CK1α),IKZF3 substrate protein remaining % (IKZF3),IKZF2 substrate protein remaining % (IKZF2),WEE1 substrate protein remaining % (WEE1),inhibition at 0.01 µM (MV-4-11),inhibition at 0.5 µM (MV-4-11),inhibition at 0.01 µM (H292),inhibition at 0.5 µM (H292),inhibition at 0.01 µM (MDA-MB-231),inhibition at 0.5 µM (MDA-MB-231)
500 to 1000 nM,"O=C1CCN(N2Cc3cc(CN4CCC(c5ccsc5)CC4)ccc3C2=O)C(=O)N1 [GT-07371, 1-(1-oxo-5-((4-(thiophen-3-yl)piperidin-1-yl)methyl)isoindolin-2-yl)dihydropyrimidine-2,4(1H,3H)-dione]",A (0% ≤ substrate protein remaining % ≤ 80%),B (80%< substrate protein remaining %≤ 100%),B (80%< substrate protein remaining %≤ 100%),A (0% ≤ substrate protein remaining % ≤ 80%),B (80%< substrate protein remaining %≤ 100%),B (80%< substrate protein remaining %≤ 100%),–,–,–,–,–,–,–,–,–,–,–,–
100 to 300 nM,"O=C1CCN(N2Cc3cc(CN4CC=C(c5ccnc6cc(F)ccc56)CC4)ccc3C2=O)C(=O)N1 [GT-05166, 1-(5-((4-(7-fluoroquinolin-4-yl)-3,6-dihydropyridin-1(2H)-yl)methyl)-1-oxoisoindolin-2-yl)dihydropyrimidine-2,4(1H,3H)-dione]",–,–,–,–,–,–,"A (""A"" is defined as 0% ≤ substrate protein remaining % ≤ 80%)","A (""A"" is defined as 0% ≤ substrate protein remaining % ≤ 80%)","B (""B"" is defined as 80%< substrate protein remaining %≤ 100%)","A (""A"" is defined as 0% ≤ substrate protein remaining % ≤ 80%)","A (""A"" is defined as 0% ≤ substrate protein remaining % ≤ 80%)","A (""A"" is defined as 0% ≤ substrate protein remaining % ≤ 80%)",–,–,–,–,–,–
–,"O=C1CCN(N2C(=O)c3ccc(CN4CC(=C5CCOc6cc(F)ccc65)C4)cc3C2=O)C(=O)N1 [GT-07888, 2-(2,4-dioxotetrahydropyrimidin-1(2H)-yl)-5-((3-(7-fluorochroman-4-ylidene)azetidin-1-yl)methyl)isoindoline-1,3-dione]",–,–,–,–,–,–,–,–,–,–,–,–,40 to 60%,40 to 60%,5 to 10%,10 to 15%,18 to 25%,18 to 25%
–,"O=C1CCN(N2Cc3cc(CNC45CC6CC(CC(C6)C4)C5)ccc3C2=O)C(=O)N1 [GT-07806, 1-(5-((((3s,5s,7s)-adamantan-1-yl)amino)methyl)-1-oxoisoindolin-2-yl)dihydropyrimidine-2,4(1H,3H)-dione]",–,–,–,–,–,–,–,–,–,–,–,–,5 to 10%,25 to 30%,15 to 20%,15 to 20%,18 to 25%,18 to 25%
–,"O=C1CCN(N2C(=O)c3ccc(CN4CCC(c5ncnc6scc(-c7ccccc7)c56)CC4)cc3C2=O)C(=O)N1 [GT-08109, 2-(2,4-dioxotetrahydropyrimidin-1(2H)-yl)-5-((4-(5-phenylthieno[2,3-d]pyrimidin-4-yl)piperidin-1-yl)methyl)isoindoline-1,3-dione]",A (0% ≤ substrate protein remaining % ≤ 80%),A (0% ≤ substrate protein remaining % ≤ 80%),A (0% ≤ substrate protein remaining % ≤ 80%),A (0% ≤ substrate protein remaining % ≤ 80%),A (0% ≤ substrate protein remaining % ≤ 80%),A (0% ≤ substrate protein remaining % ≤ 80%),–,–,–,–,–,–,–,–,15 to 20%,1 to 5%,18 to 25%,5 to 10%
–,"O=C1CCN(N2C(=O)c3ccc(CN4CCC(c5ncnc6sc(-c7ccccc7)cc56)CC4)cc3C2=O)C(=O)N1 [GT-08108, 2-(2,4-dioxotetrahydropyrimidin-1(2H)-yl)-5-((4-(6-phenylthieno[2,3-d]pyrimidin-4-yl)piperidin-1-yl)methyl)isoindoline-1,3-dione]",A (0% ≤ substrate protein remaining % ≤ 80%),A (0% ≤ substrate protein remaining % ≤ 80%),A (0% ≤ substrate protein remaining % ≤ 80%),A (0% ≤ substrate protein remaining % ≤ 80%),A (0% ≤ substrate protein remaining % ≤ 80%),A (0% ≤ substrate protein remaining % ≤ 80%),–,–,–,–,–,–,–,–,20 to 40%,15 to 20%,25 to 40%,18 to 25%
–,"Cc1nc(C2CCN(Cc3ccc4c(c3)C(=O)N(N3CCC(=O)NC3=O)C4=O)CC2)c2c(-c3ccccc3)csc2n1 [GT-08110, 2-(2,4-dioxotetrahydropyrimidin-1(2H)-yl)-5-((4-(2-methyl-5-phenylthieno[2,3-d]pyrimidin-4-yl)piperidin-1-yl)methyl)isoindoline-1,3-dione]",A (0% ≤ substrate protein remaining % ≤ 80%),A (0% ≤ substrate protein remaining % ≤ 80%),A (0% ≤ substrate protein remaining % ≤ 80%),A (0% ≤ substrate protein remaining % ≤ 80%),A (0% ≤ substrate protein remaining % ≤ 80%),A (0% ≤ substrate protein remaining % ≤ 80%),–,–,–,–,–,–,10 to 18%,18 to 25%,20 to 40%,10 to 15%,25 to 40%,15 to 18%
–,"O=C1CCN(N2Cc3cc(CN4CCN(c5ncnc6sc(Br)cc56)CC4)ccc3C2=O)C(=O)N1 [GT-08063, 1-(5-((4-(6-bromothieno[2,3-d]pyrimidin-4-yl)piperazin-1-yl)methyl)-1-oxoisoindolin-2-yl)dihydropyrimidine-2,4(1H,3H)-dione]",B (80%< substrate protein remaining %≤ 100%),B (80%< substrate protein remaining %≤ 100%),B (80%< substrate protein remaining %≤ 100%),A (0% ≤ substrate protein remaining % ≤ 80%),A (0% ≤ substrate protein remaining % ≤ 80%),B (80%< substrate protein remaining %≤ 100%),–,–,–,–,–,–,18 to 25%,5 to 10%,20 to 40%,20 to 40%,15 to 18%,15 to 18%
–,"O=C1CCN(N2Cc3cc(CN4CCN(c5ncc6ccsc6n5)CC4)ccc3C2=O)C(=O)N1 [GT-08081, 1-(1-oxo-5-((4-(thieno[2,3-d]pyrimidin-2-yl)piperazin-1-yl)methyl)isoindolin-2-yl)dihydropyrimidine-2,4(1H,3H)-dione]",A (0% ≤ substrate protein remaining % ≤ 80%),B (80%< substrate protein remaining %≤ 100%),A (0% ≤ substrate protein remaining % ≤ 80%),B (80%< substrate protein remaining %≤ 100%),B (80%< substrate protein remaining %≤ 100%),A (0% ≤ substrate protein remaining % ≤ 80%),–,–,–,–,–,–,18 to 25%,25 to 30%,–,–,18 to 25%,5 to 10%
–,"NCc1ccc2c(c1)CN(N1CCC(=O)NC1=O)C2=O [GT-08118, 1-(5-(aminomethyl)-1-oxoisoindolin-2-yl)dihydropyrimidine-2,4(1H,3H)-dione]",–,–,–,–,–,–,–,–,–,–,–,–,40 to 60%,40 to 60%,20 to 40%,20 to 40%,18 to 25%,25 to 40%

Structure (SMILES),IC50 (MM.1S),substrate protein remaining % GSPT1 (GSPT1),substrate protein remaining % IKZF1 (IKZF1),substrate protein remaining % CK1α (CK1α),substrate protein remaining % IKZF3 (IKZF3),substrate protein remaining % IKZF2 (IKZF2),substrate protein remaining % WEE1 (WEE1),GSPT1 substrate protein remaining % (GSPT1),IKZF1 substrate protein remaining % (IKZF1),CK1α substrate protein remaining % (CK1α),IKZF3 substrate protein remaining % (IKZF3),IKZF2 substrate protein remaining % (IKZF2),WEE1 substrate protein remaining % (WEE1),inhibition at 0.01 µM (MV-4-11),inhibition at 0.5 µM (MV-4-11),inhibition at 0.01 µM (H292),inhibition at 0.5 µM (H292),inhibition at 0.01 µM (MDA-MB-231),inhibition at 0.5 µM (MDA-MB-231)
"CC1(C)CCC(CN2CC3CC(C2)N3Cc2ccc3c(c2)CN(N2CCC(=O)NC2=O)C3=O)=C(c2ccc(Cl)cc2)C1 [GT-06456, 1-(5-((3-((4'-chloro-5,5-dimethyl-3,4,5,6-tetrahydro-[1,1'-biphenyl]-2-yl)methyl)-3,6-diazabicyclo[3.1.1]heptan-6-yl)methyl)-1-oxoisoindolin-2-yl)dihydropyrimidine-2,4(1H,3H)-dione]",100 to 300 nM,–,–,–,–,–,–,"A (""A"" is defined as 0% ≤ substrate protein remaining % ≤ 80%)","A (""A"" is defined as 0% ≤ substrate protein remaining % ≤ 80%)","A (""A"" is defined as 0% ≤ substrate protein remaining % ≤ 80%)","A (""A"" is defined as 0% ≤ substrate protein remaining % ≤ 80%)","A (""A"" is defined as 0% ≤ substrate protein remaining % ≤ 80%)","A (""A"" is defined as 0% ≤ substrate protein remaining % ≤ 80%)",–,–,–,–,–,–
